# Experimental data published in paper PMC8286840, “Identifying SARS-CoV-2 antiviral compounds by screening for small molecule inhibitors of Nsp3 papain-like protease” (Biochemical Journal, 2021).
# Counter-ions that a name gives are not always drawn. Like-named read-outs stand apart in the source and are kept apart here.
# Columns and labels:
# [1] = biological target: T1, SARS-CoV-2 PLpro (nsp3 1564–1878) (Severe acute respiratory syndrome coronavirus 2, UniProt P0DTD1); test: biochemical; design: FRET-quenched peptide (Pro3) cleavage by PLpro, 10 min pre-incubation, slope over 20 min, normalised to no-compound control; conditions: read-out: % of control remaining
# [2] = biological target: T1, SARS-CoV-2 PLpro (nsp3 1564–1878); test: biochemical; design: FRET-quenched peptide (Pro3) cleavage by PLpro, 10 min pre-incubation, slope over 20 min, normalised to no-compound control; conditions: read-out: % of control remaining; remark: listed apart in the source
smiles,measurement,setting,value
COc1cc2nc(N(C)CCCNC(=O)C3CCCO3)nc(N)c2cc1OC (stereo not drawn) [Alfuzosin],remaining activity at 3.75 µM,"[1]; Well no.=1809, high concentration screen",97.8%
same,remaining activity at 3.75 µM,"[1]; Well no.=6749, high concentration screen",92.3%
same,remaining activity at 1.25 µM,"[2]; Well no.=1809, low concentration screen",98.4%
same,remaining activity at 1.25 µM,"[2]; Well no.=6749, low concentration screen",100%
COC(=O)N1CCN(C(=O)Cc2ccc(Cl)c(Cl)c2)C(CN2CCCC2)C1 (stereo not drawn) [GR-89696 fumarate],remaining activity at 3.75 µM,"[1]; Well no.=462, high concentration screen",99.8%
same,remaining activity at 1.25 µM,"[2]; Well no.=462, low concentration screen",101%
Cc1cccc(C#Cc2ccccc2)n1 [MPEP (Hydrochloride)],remaining activity at 3.75 µM,"[1]; Well no.=8541, high concentration screen",90.4%
same,remaining activity at 1.25 µM,"[2]; Well no.=8541, low concentration screen",96.2%
O=S(=O)(O)C1CCNCC1 [Piperidine-4-sulphonic acid],remaining activity at 3.75 µM,"[1]; Well no.=1449, high concentration screen",94.6%
same,remaining activity at 1.25 µM,"[2]; Well no.=1449, low concentration screen",99.5%
CC[C@H]1OC(=O)[C@@](C)(F)C(=O)[C@H](C)[C@@H](O[C@@H]2O[C@H](C)C[C@H](N(C)C)[C@H]2O)[C@](C)(OC)C[C@@H](C)C(=O)[C@H](C)[C@H]2N(CCCCn3cc(-c4cccc(N)c4)nn3)C(=O)O[C@]12C [Solithromycin],remaining activity at 3.75 µM,"[1]; Well no.=7990, high concentration screen",95.7%
same,remaining activity at 1.25 µM,"[2]; Well no.=7990, low concentration screen",97.5%
Cc1cccc(C)c1OCC(C)N (stereo not drawn) [Mexiletene hydrochloride],remaining activity at 3.75 µM,"[1]; Well no.=1066, high concentration screen",99.6%
same,remaining activity at 1.25 µM,"[2]; Well no.=1066, low concentration screen",102%
COc1ccnc(C[S+]([O-])c2nc3cc(OC(F)F)ccc3[nH]2)c1OC (stereo not drawn) [Pantoprazole],remaining activity at 3.75 µM,"[1]; Well no.=2091, high concentration screen",99.9%
same,remaining activity at 1.25 µM,"[2]; Well no.=2091, low concentration screen",101%
COc1c(O[C@@H]2O[C@H](CO)[C@@H](O)[C@H](O)[C@H]2O)cc2oc(-c3ccc(O)cc3)cc(=O)c2c1O [Homoplantaginin],remaining activity at 3.75 µM,"[1]; Well no.=6446, high concentration screen",95.8%
same,remaining activity at 1.25 µM,"[2]; Well no.=6446, low concentration screen",94.1%
C[C@H]1CC[C@@H](C(C)(C)O)CC2=C1CC[C@@H]2C [(-)-Guaiol],remaining activity at 3.75 µM,"[1]; Well no.=3076, high concentration screen",99.3%
same,remaining activity at 1.25 µM,"[2]; Well no.=3076, low concentration screen",98.4%
COc1ccc(-c2coc3cc(O)ccc3c2=O)cc1 [Formononetin],remaining activity at 3.75 µM,"[1]; Well no.=3611, high concentration screen",96.2%
same,remaining activity at 1.25 µM,"[2]; Well no.=3611, low concentration screen",96.9%
O[C@H]1[C@H]2[C@H](O)CCCN2C[C@H]1O [Swainsonine],remaining activity at 3.75 µM,"[1]; Well no.=3176, high concentration screen",100%
same,remaining activity at 1.25 µM,"[2]; Well no.=3176, low concentration screen",97.3%
CN(C)CCOC(C)(c1ccccc1)c1ccccn1 (stereo not drawn) [Doxylamine succinate],remaining activity at 3.75 µM,"[1]; Well no.=497, high concentration screen",104%
same,remaining activity at 1.25 µM,"[2]; Well no.=497, low concentration screen",102%
CC(C(=O)Nc1cc(C#N)ccc1CCCC(=O)O)c1ccc(F)c2ccccc12 (stereo not drawn) [ONO-AE3-208],remaining activity at 3.75 µM,"[1]; Well no.=7279, high concentration screen",94.1%
same,remaining activity at 1.25 µM,"[2]; Well no.=7279, low concentration screen",98.9%
"CC(C)=CCc1cc2c(cc1O)oc(=O)c1c3ccc(O)cc3oc21 [3,9-dihydroxy-2-(3-methyl-2-butenyl)-6H-[1]benzofuro[3,2-c]chromen-6-one]",remaining activity at 3.75 µM,"[1]; Well no.=6091, high concentration screen",87.9%
same,remaining activity at 1.25 µM,"[2]; Well no.=6091, low concentration screen",95.4%
"COc1ccc2c3c1O[C@H]1C(=O)CC[C@@]4(O)C(C2)N(CC2CC2)CCC314 (single isomer, unassigned; (-)) [(-)-3-Methoxynaltrexone hydrochloride]",remaining activity at 3.75 µM,"[1]; Well no.=947, high concentration screen",97%
same,remaining activity at 1.25 µM,"[2]; Well no.=947, low concentration screen",98.1%
O=C(O)COC(=O)Cc1ccccc1Nc1c(Cl)cccc1Cl [Aceclofenac],remaining activity at 3.75 µM,"[1]; Well no.=2071, high concentration screen",102%
same,remaining activity at 1.25 µM,"[2]; Well no.=2071, low concentration screen",103%
N[C@@H](CSCCCO)C(=O)O [Fudosteine],remaining activity at 3.75 µM,"[1]; Well no.=5102, high concentration screen",102%
same,remaining activity at 1.25 µM,"[2]; Well no.=5102, low concentration screen",100%
O=C(c1ccc(OCCN2CCCCC2)cc1)c1c(-c2ccc(O)cc2)sc2cc(O)ccc12 [Raloxifene hydrochloride],remaining activity at 3.75 µM,"[1]; Well no.=1204, high concentration screen",99.2%
same,remaining activity at 1.25 µM,"[2]; Well no.=1204, low concentration screen",97.4%
CC(C)C[C@H](NC(=O)[C@H](Cc1ccccc1)NC(=O)CNC(=O)[C@@H](C)NC(=O)[C@@H](N)Cc1ccc(O)cc1)C(=O)O [[D-Ala2]leucine-enkephalin],remaining activity at 3.75 µM,[1],98.6%
same,remaining activity at 1.25 µM,[2],101%
O=C(O)CNC(=O)C(CS)Cc1ccccc1 (racemic) [DL-Thiorphan],remaining activity at 3.75 µM,"[1]; Well no.=1243, high concentration screen",104%
same,remaining activity at 1.25 µM,"[2]; Well no.=1243, low concentration screen",103%
CC(C)[C@@]1(NC(=O)[C@@H]2C[C@@H]3c4cccc5[nH]cc(c45)C[C@H]3N(C)C2)O[C@@]2(O)[C@@H]3CCCN3C(=O)[C@H](Cc3ccccc3)N2C1=O [Dihydroergocristine],remaining activity at 3.75 µM,"[1]; Well no.=2098, high concentration screen",102%
same,remaining activity at 1.25 µM,"[2]; Well no.=2098, low concentration screen",104%
CC1=C(/C=C/C(C)=C/C=C/C(C)=C/C(=O)Nc2ccc(O)cc2)C(C)(C)CCC1 [Fenretinide],remaining activity at 3.75 µM,"[1]; Well no.=1577, high concentration screen",92.2%
same,remaining activity at 1.25 µM,"[2]; Well no.=1577, low concentration screen",92.1%
Nc1nc(-c2nn(Cc3ccccc3F)c3ncccc23)ncc1C1CC1 [BAY 41-2272],remaining activity at 3.75 µM,"[1]; Well no.=7717, high concentration screen",94.6%
same,remaining activity at 1.25 µM,"[2]; Well no.=7717, low concentration screen",102%
NCCc1ccc(O)cc1 [Tyramine],remaining activity at 3.75 µM,"[1]; Well no.=6541, high concentration screen",101%
same,remaining activity at 1.25 µM,"[2]; Well no.=6541, low concentration screen",107%
Nc1ccc(N2C(=O)c3ccccc3C2=O)c(Cl)c1 [N-(4-Amino-2-chlorophenyl)phthalimide],remaining activity at 3.75 µM,"[1]; Well no.=344, high concentration screen",96.5%
same,remaining activity at 1.25 µM,"[2]; Well no.=344, low concentration screen",95.3%
CS(=O)(=O)c1ccc(-c2cc(Br)sc2-c2ccc(F)cc2)cc1 [DuP 697],remaining activity at 3.75 µM,"[1]; Well no.=499, high concentration screen",107%
same,remaining activity at 1.25 µM,"[2]; Well no.=499, low concentration screen",105%
CN1CCN(c2ccc3nc(-c4c(N)c5c(F)cccc5[nH]c4=O)[nH]c3c2)CC1 [CHIR-258],remaining activity at 3.75 µM,"[1]; Well no.=2757, high concentration screen",95.3%
same,remaining activity at 1.25 µM,"[2]; Well no.=2757, low concentration screen",96.4%
"Brc1c(NC2=NCCN2)ccc2nccnc12 [UK 14,304]",remaining activity at 3.75 µM,"[1]; Well no.=1238, high concentration screen",97.9%
same,remaining activity at 1.25 µM,"[2]; Well no.=1238, low concentration screen",98.9%
CC(N)c1cccc(Cl)c1Cl (racemic),remaining activity at 3.75 µM,"[1]; Well no.=734, high concentration screen",94.8%
same,remaining activity at 1.25 µM,"[2]; Well no.=734, low concentration screen",92.1%
"NCC(O)c1ccc(O)cc1 (racemic) [(+,-)-Octopamine HCl]",remaining activity at 3.75 µM,"[1]; Well no.=5038, high concentration screen",103%
same,remaining activity at 1.25 µM,"[2]; Well no.=5038, low concentration screen",101%
NC1CONC1=O (racemic) [DL-Cycloserine],remaining activity at 3.75 µM,"[1]; Well no.=136, high concentration screen",108%
same,remaining activity at 1.25 µM,"[2]; Well no.=136, low concentration screen",109%
CC(C)(C)NCC(O)c1cc(O)cc(O)c1 (stereo not drawn) [Terbutaline hemisulfate],remaining activity at 3.75 µM,"[1]; Well no.=1189, high concentration screen",100%
same,remaining activity at 1.25 µM,"[2]; Well no.=1189, low concentration screen",98.5%
COc1ccc(C[C@H]2c3cc(OC)c(OC)cc3CC[N+]2(C)C)cc1OC [Laudanosine methiodide],remaining activity at 3.75 µM,"[1]; Well no.=3589, high concentration screen",106%
same,remaining activity at 1.25 µM,"[2]; Well no.=3589, low concentration screen",103%
CC(C)(C(=O)O)c1ccc(C(O)CCCN2CCC(C(O)(c3ccccc3)c3ccccc3)CC2)cc1 (stereo not drawn) [Fexofenadine hydrochloride],remaining activity at 3.75 µM,"[1]; Well no.=425, high concentration screen",92.8%
same,remaining activity at 1.25 µM,"[2]; Well no.=425, low concentration screen",93.1%
O=C(c1cc(C2CC2)on1)N(C1CCCCC1)C1CCCCC1 [CYM-5541],remaining activity at 3.75 µM,"[1]; Well no.=6224, high concentration screen",94.5%
same,remaining activity at 1.25 µM,"[2]; Well no.=6224, low concentration screen",97.7%
